Measurements: patent US11873291B2, “Quinoline cGAS antagonist compounds” (ImmuneSensor Therapeutics, Inc., priority 2020, dated 2024)
Like-named read-outs stand apart in the source and are kept apart here.

How the values were obtained:
[1] = biological target: T1, recombinant human cGAS (aa147-522) (Homo sapiens, UniProt Q8N884); experiment: In vitro inhibition assay of cGAS activity (ATP consumption, KinaseGlo Max); assay type: biochemical
T1 construct: recombinant human cGAS (aa147-522); His6-SUMO (cleaved yes); made in house; host or cells: E. coli BL21/pLys
How it was run: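 De-tagged recombinant human cGAS (aa147-522, 1.5 μg/mL) was incubated 20 min at 37 °C with herring testis DNA, 6.6 μM ATP and 0.1 mM GTP in Tris pH 7.5/MgCl2 buffer plus serial compound dilutions. Remaining ATP was read by KinaseGlo Max luminescence, and IC50 was fitted from % ATP consumption versus log concentration.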

[2] = tested on: cGAS activity in Reporter THP1 cell line; experiment: Cellular assay to measure cGAS activity: ISRE-Gaussia luciferase reporter THP1 cells transfected with ISD; assay type: cell-based; conditions: Homo sapiens
Experimental: Cellular assay to measure cGAS activity: Reporter THP1 cell line harboring a gene encoding Gaussia Luciferase under the control of 5 tandem repeats of interferon-stimulated response elements (ISRE) fused to an ISG54 minimal promoter was used to test inhibition of cGAS activity by synthetic compounds in human cells. These cells were plated on 96-well plates at 0.3×10^6/well and incubated with serial dilutions of compounds or DMSO for 5 min, followed by transfection of 2 μg/mL of ISD (Interferon Stimulatory DNA, a 45 bp DNA oligo) or mock transfected using lipofectamine 2000 (Life Technology) method, according to manufacturer's instructions. 16 hours later, 15 μL of the media from each well was transferred to a new plate, 50 μL of solution containing 50 mM Hepes-NaOH, pH 6.5, 50 mM NaCl, 10 mM EDTA, 1 μM of coelenterazine was added to each well and luminescence was measured immediately. Fold increase in luminescence compared to mock transfection was plotted against concentrations of each compound, and IC50 is calculated using Graphpad. To evaluate the specificity of a compound, the same procedure was performed except that cells were transfected with 2 μg/mL poly(I:C) or infected with Sendai Virus (SeV) at 50 Unit/mL, which are known to activate the RIG-I-MAVS pathway. A specific inhibitory compound should inhibit interferon induction by DNA but have minimal effect on poly(I:C) or Sendai virus induced interferon reporter gene expression.
The letter codes for cGAS IC50 include: A (<2 μM); B (2-10 μM); C (>10 μM).

[3] = Table 3, read-out: cGAS Inhibition Results IC50
[4] = THP-1, Table 4, Gaussia luciferase
[5] = THP-1, untitled table after Table 4 (continuation)
[6] = Table 2, read-out: cGAS Inhibition Results IC50

T1 sequence (Q8N884 147-522): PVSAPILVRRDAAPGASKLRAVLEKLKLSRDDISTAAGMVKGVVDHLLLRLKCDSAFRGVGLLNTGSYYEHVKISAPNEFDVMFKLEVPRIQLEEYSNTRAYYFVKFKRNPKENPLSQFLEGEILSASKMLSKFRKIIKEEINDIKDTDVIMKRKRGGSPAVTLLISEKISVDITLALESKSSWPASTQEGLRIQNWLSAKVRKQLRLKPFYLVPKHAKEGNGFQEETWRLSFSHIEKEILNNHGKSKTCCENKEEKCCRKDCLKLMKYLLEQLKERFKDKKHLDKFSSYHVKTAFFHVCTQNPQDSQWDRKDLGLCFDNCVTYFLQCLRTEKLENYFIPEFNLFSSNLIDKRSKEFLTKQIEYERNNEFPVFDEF

Row | Compound | IC50 [1, 3] [nM] | IC50 [2, 4] [nM] | IC50 [2, 5] [nM] | IC50 [1, 6] [nM]
1 | COC(=O)CCOC[C@@H]1[C@@H](O)CCN1c1cc(-n2ccnc2)c2ccc(Cl)c(Cl)c2n1 [I-701] | < 2000 | 2000 to 10000 | – | –
2 | O=C(O)COCCC[C@@H]1CCCN1c1cc(-n2ccnc2)c2ccc(Cl)c(Cl)c2n1 [I-820] | < 2000 | – | < 2000 | –
3 | COC(=O)CCOC[C@@H]1CCCN1c1cc(-c2cn[nH]c2)c2ccc(Cl)c(Cl)c2n1 [I-671] | < 2000 | < 2000 | – | –
4 | O=C(O)[C@@H]1[C@H]2CC[C@H](C2)N1c1cc(-n2ccnc2)c2ccc(Cl)c(Cl)c2n1 [I-516] | < 2000 | > 10000 | – | –
5 | C[C@@H]1C[C@@H](COCCC(=O)O)N(c2cc(-n3ccnc3)c3ccc(Cl)c(Cl)c3n2)C1 [I-795] | < 2000 | – | < 2000 | –
6 | O=C(O)c1noc(CCNc2cc(-n3ccnc3)c3ccc(Cl)c(Cl)c3n2)n1 [I-882] | < 2000 | – | > 10000 | –
7 | COC(=O)[C@@H]1CC2(CC2)CN1c1cc(-n2ccnc2)c2ccc(Cl)c(Cl)c2n1 [I-582] | < 2000 | < 2000 | – | –
8 | COc1ccc(-c2cc(-n3ccnc3)c3ccc(Cl)cc3n2)cc1C(=O)O [I-15] | – | > 10000 | – | < 2000
9 | C[C@H]1CC[C@@H](COCCC(=O)O)N1c1cc(-n2ccnc2)c2ccc(Cl)c(Cl)c2n1 [I-810] | < 2000 | – | < 2000 | –
10 | O=C(O)CCOC[C@@H]1CCCN1c1cc(-n2ccnc2)c2cc(Br)c(Cl)c(Cl)c2n1 [I-857] | < 2000 | – | < 2000 | –
11 | O=C(O)CCOC[C@@H]1C[C@H](Oc2ccccc2)CN1c1cc(-n2ccnc2)c2ccc(Cl)c(Cl)c2n1 [I-713] | < 2000 | < 2000 | – | –
12 | O=C(OCC(F)(F)F)[C@@H]1[C@@H](O)CCN1c1cc(-n2ccnc2)c2ccc(Cl)c(Cl)c2n1 [I-556] | < 2000 | < 2000 | – | –
13 | COC(=O)[C@@H]1CC(C)(C)CN1c1cc(-n2ccnc2)c2ccc(Cl)c(Cl)c2n1 [I-583] | 2000 to 30000 | < 2000 | – | –
14 | NC(=O)COC[C@@H]1CCCN1c1cc(-n2ccnc2)c2ccc(Cl)c(Cl)c2n1 [I-760, (S)-2-((1-(7,8-dichloro-4-(1H-imidazol-1-yl)quinolin-2-yl)pyrrolidin-2-yl)methoxy)acetamide] | < 2000 | – | > 10000 | –
15 | O=C(O)CCOC[C@H]1CCCN(c2cc(-n3ccnc3)c3ccc(Cl)c(Cl)c3n2)C1 [I-745] | < 2000 | < 2000 | – | –
16 | CN(CCCCCC(=O)O)c1cc(-n2ccnc2)c2ccc(Cl)c(Cl)c2n1 [I-691] | < 2000 | < 2000 | – | –
17 | C[C@H]1CN(c2cc(-n3ccnc3)c3ccc(Cl)c(Cl)c3n2)C[C@@H]1COCCC(=O)O [I-814] | < 2000 | – | < 2000 | –
18 | NS(=O)(=O)CC1CCN(c2cc(-n3ccnc3)c3ccc(Cl)c(Cl)c3n2)C1 (stereo not drawn) [I-149] | – | > 10000 | – | < 2000
19 | COC(=O)C[C@@H]1[C@@H](O)CCN1c1cc(-n2ccnc2)c2ccc(Cl)c(Cl)c2n1 [I-786, methyl 2-((2R,3S)-1-(7,8-dichloro-4-(1H-imidazol-1-yl)quinolin-2-yl)-3-hydroxypyrrolidin-2-yl)acetate] | < 2000 | – | 2000 to 10000 | –
20 | O=C(O)COC[C@@H]1CN(c2cc(-n3ccnc3)c3ccc(Cl)c(Cl)c3n2)CCO1 [I-742] | < 2000 | > 10000 | – | –
21 | O=C1CN(c2cc(-n3ccnc3)c3ccc(Cl)c(Cl)c3n2)CCCN1 [I-86] | – | 2000 to 10000 | – | < 2000
22 | O=C(O)CCOC[C@@H]1CC2(CC2)CN1c1cc(-n2ccnc2)c2ccc(Cl)c(Cl)c2n1 [I-709] | < 2000 | < 2000 | – | –
23 | O=C(O)C(O)CC[C@@H]1CCCN1c1cc(-n2ccnc2)c2ccc(Cl)c(Cl)c2n1 (stereo partly drawn) [I-817, 4-((S)-1-(7,8-dichloro-4-(1H-imidazol-1-yl)quinolin-2-yl)pyrrolidin-2-yl)-2-hydroxybutanoic acid] | < 2000 | – | > 10000 | –
24 | O=C(O)CCOCC1CC(F)CN(c2cc(-n3ccnc3)c3ccc(Cl)c(Cl)c3n2)C1 (stereo not drawn) [I-749] | < 2000 | < 2000 | – | –
